Values of other authors in patent US8410096B2, “Antitumor agent, kit and method of treating cancer” (Shizuoka Prefecture, priority 2008, dated 2013).

Tested on: 5-FU decomposition
Settings: compared with uracil

5-FU decomposition inhibitory action relative to uracil: about 200 times
SMILES: Oc1cc(O)c(Cl)cn1 [gimeracil, 2,4-dihydroxy-5-chloropyridine]
